Source: patent publication US7687651B2, “Method for the preparation of trans-or cis-diammoniumdichlorodihydroxoplatinum(IV) and the use thereof in the production of pharmaceutical active substances” (priority 2003, dated 2010)
“And” between values parts separate entries of the source, which are not always exact repeats. Identical values can stand only once.

Experiments:
Type in all cases: cell-based, human
COLO 205 Colon carcinoma = assay: Cytotoxic activity of trans-oxoplatin, COLO 205
Description: (§1) trans-Oxoplatin was tested on a panel of cell lines, using double steps and an initial concentration of 40 μg/ml. As the IC50 values were not reached in most cases, cell survival at the highest concentration is indicated.

HL-60 Leukemia = assay: Cytotoxic activity of trans-oxoplatin, HL-60
Description: as §1

HOS Osteosarcoma [1] = assay: Cytotoxic activity of trans-oxoplatin, HOS
Description: as §1

HCT-15 Colon carcinoma [2] = assay: Cytotoxic activity of trans-oxoplatin, HCT-15
Description: as §1

ASTRO Astrocytoma = assay: Cytotoxic activity of trans-oxoplatin, ASTRO
Description: as §1

[3] = system: MiaPaCa2 Pancreatic cancer; assay: Cytotoxic activity of trans-oxoplatin, MIAPaCa2; conditions: several values given
Description: as §1

ACHN Renal carcinoma = assay: Cytotoxic activity of trans-oxoplatin, ACHN
Description: as §1

Fib3 Fibroblasts = assay: Cytotoxic activity of trans-oxoplatin, Fib3
Description: as §1

CRO1A Carcinoid = assay: Cytotoxic activity of trans-oxoplatin, CRO1A; conditions: several values given
Description: as §1

Panc1 Pancreatic cancer [4] = assay: Cytotoxic activity of trans-oxoplatin, PANC1
Description: as §1

K562 Leukemia = assay: Cytotoxic activity of trans-oxoplatin, K562
Description: as §1

T-47D breast cancer = assay: Cytotoxic activity of trans-oxoplatin, T-47D
Description: as §1

MDA-MB-231 Breast cancer = assay: Cytotoxic activity of trans-oxoplatin, MDA-MB-231; conditions: several values given
Description: as §1

U-87-MG Astrocytoma = assay: Cytotoxic activity of trans-oxoplatin, U-87-MG
Description: as §1

SW620 Colon carcinoma = assay: Cytotoxic activity of trans-oxoplatin, SW620; conditions: SW 620 colon carcinoma cell line
Description: as §1

[5] = system: BxPC3 Pancreatic carcinoma; assay: Cytotoxic activity of trans-oxoplatin, BxPC3
Description: as §1

G-292 Osteosarcoma = assay: Cytotoxic activity of trans-oxoplatin, G-292; conditions: G-292 osteosarcoma cell line
Description: as §1

[6] = system: WI-38 Embryonic lung fibroblasts; assay: Cytotoxic activity of trans-oxoplatin, WI-38
Description: as §1

[7] = system: HT29, SW480, SK-OV4, PC3, SIM, CaCO-2, DU145 and CRO2B cells; assay: Growth inhibition, IC50 over eight cell lines of Table 2; conditions: CaCO-2, DU145, CRO2B
Description: (§2) Growth inhibition tests on various human cell lines show the different activities of cisplatin, cis-oxoplatin and oxaliplatin. […] The following Table illustrates the results produced with cisplatin, oxoplatin, carboplatin and oxaliplatin (the values specified are IC50 values in μg/ml, i.e., the concentration where 50% of the cells survive, nd=not determined; res=resistant=non-sensitive or IC50 value cannot be determined at a concentration of up to 40 μg/ml; IC=inhibition concentration).
The activities differ according to the cell line.

M607 Melanoma = assay: Growth inhibition test on M607 cells; conditions: Table 1
Description: as §2

[8] = system: MiaPaCa2 Pancreatic cancer; assay: Growth inhibition test on MiaPaCa2 cells; conditions: Table 1
Description: as §2

HT29 Colon carcinoma = assay: Growth inhibition test on HT29 cells
Description: (§3) The effect of cis-oxoplatin Ca and cis-oxoplatin was compared on 10 cell lines (Table 4).
(§4) (IC50 values specified in μg/ml; the test was performed as a formazan test).

M518 Melanoma = assay: Growth inhibition test on M518 cells; conditions: Table 1
Description: as §2

T47D Breast cancer = assay: Growth inhibition test on T47D cells
Description: as §3, §4

Panc1 Pancreatic cancer [9] = assay: Growth inhibition test on Panc1 cells; conditions: Table 1
Description: as §2

Du145 Prostate = assay: Growth inhibition test on Du145 cells; conditions: Du145 Prostate
Description: as §3, §4

10 cell lines (Table 4) = assay: Formazan test, IC50 mean value for all cell lines of Table 4; conditions: mean over the 10 cell lines of Table 4
Description: as §3, §4

MCF-7 Breast cancer = assay: Growth inhibition test on MCF-7 cells; conditions: Table 1
Description: as §2

CC1227 Colon carcinoma = assay: Growth inhibition test on CC1227 cells; conditions: Table 1
Description: as §2

Me128 Melanoma = assay: Growth inhibition test on Me128 cells; conditions: Table 1
Description: as §2

A498 Renal cells = assay: Growth inhibition test on A498 cells; conditions: Table 1
Description: as §2

PC3 Prostate = assay: Growth inhibition test on PC3 cells; conditions: for % Survival: PC3 cells; for IC50: PC3 Prostate
Description: as §2

U 373 MG Astrocytoma = assay: Growth inhibition test on U 373 MG cells; conditions: Table 2
Description: as §2

SaOS Osteosarcoma = assay: Growth inhibition test on SaOS cells; conditions: Table 1
Description: as §2

SK-OV4 Ovarian cancer = assay: Growth inhibition test on SK-OV4 cells; conditions: Table 2; SK-OV4 Ovarian cancer
Description: as §2

C320DM Colon carcinoma = assay: Growth inhibition test on C320DM cells; conditions: Table 1
Description: as §2

Colo205 Colon carcinoma = assay: Growth inhibition test on Colo205 cells
Description: as §3, §4

SK-OV3 Ovarian cancer = assay: Growth inhibition test on SK-OV3 cells; conditions: Table 2
Description: as §2

MDA-MB-435 Breast = assay: Formazan test on MDA-MB-435 cells; conditions: Table 4
Description: as §3, §4

HCT8 Colon carcinoma = assay: Growth inhibition test on HCT8 cells; conditions: Table 1
Description: as §2

HOS Osteosarcoma [10] = assay: Growth inhibition test on HOS cells; conditions: Table 1
Description: as §2

CRO2B Carcinoid = assay: Growth inhibition test on CRO2B cells; conditions: CRO2B Carcinoid
Description: as §3, §4

CaCo-2 Colon = assay: Growth inhibition test on CaCo-2 cells; conditions: CaCo-2 Colon
Description: as §3, §4

LAN5 (NB) = assay: Effect on cell lines of typical tumors in children, LAN5; conditions: Table 3
Text: (§5) What is seen primarily in children are leukemias, neuroblastomas and Ewing's sarcoma/peripheral neuroectodermal tumors (group of the Ewing family of tumors=EFT). The investigated tumor cell lines include three EFTs (EW-7, SIM and KAL), as well as two neuroblastoma cell lines (NB: LAN1 and LAN5; Los Angeles neuroblastoma=LAN) (see Table 3).

BT20 Breast = assay: Formazan test on BT20 cells; conditions: Table 4
Description: as §3, §4

HCT-15 Colon carcinoma [11] = assay: Growth inhibition test on HCT-15 cells; conditions: Table 1
Description: as §2

SW480 Colon = assay: Growth inhibition test on SW480 cells; conditions: SW480 Colon
Description: as §3, §4

BxPC3 Pancreatic cancer = assay: Growth inhibition test on BxPC3 cells
Description: as §3, §4

SIM Sarcoma = assay: Growth inhibition test on SIM cells
Description: as §2, §5

EW-7 (EFT) = assay: Effect on cell lines of typical tumors in children, EW-7; conditions: Table 3
Text: as §5

LAN1 (NB) = assay: Effect on cell lines of typical tumors in children, LAN1; conditions: Table 3
Text: as §5

JVSO Melanoma = assay: Growth inhibition test on JVSO cells; conditions: Table 1
Description: as §2

With [NH2][Pt]([NH2])([OH])([OH])([Cl])[Cl] [TRAXO, trans-Oxoplatin] the “% Survival with 40 μg/ml TRAXO” value (COLO 205 Colon carcinoma) was 109%, the “% Survival with 40 μg/ml TRAXO” value (HL-60 Leukemia; HL-60, 40 μg/ml) was 0.5% and the “activity against the cell line” value (HL-60 Leukemia; HL-60 leukemia cell line) was “considerable activity”. The “activity against the cell line” value (HOS Osteosarcoma [1]; HOS osteosarcoma cell line) was “considerable activity”, the “% Survival with 40 μg/ml TRAXO” value (HOS Osteosarcoma [1]; HOS, 40 μg/ml) was 4.3% and the “% Survival with 40 μg/ml TRAXO” value (HCT-15 Colon carcinoma [2]) was 100%. For the same compound, the “% Survival with TRAXO (20 μg/ml indicated)” value (ASTRO Astrocytoma; 20 μg/ml) was 82%, the “% Survival with 40 μg/ml TRAXO” value (ASTRO Astrocytoma; 40 μg/ml) was 71% and the “% Survival with 40 μg/ml TRAXO” value [3] was 92% and 83%. For the same compound, the “activity against the cell line” value (ACHN Renal carcinoma; ACHN renal carcinoma cell line) was “considerable activity”, the “% Survival with 40 μg/ml TRAXO” value (ACHN Renal carcinoma; ACHN, 40 μg/ml) was 48% and the “% Survival with 40 μg/ml TRAXO” value (Fib3 Fibroblasts) was 91%. The “% Survival with 40 μg/ml TRAXO” value (CRO1A Carcinoid) was 87% and 104% and 70%, the “% Survival with 40 μg/ml TRAXO” value (Panc1 Pancreatic cancer [4]) was 100% and the “% Survival with 40 μg/ml TRAXO” value (K562 Leukemia) was 97%. The “sensitivity of the cell line” value (T-47D breast cancer) was “non-sensitive”, the “% Survival with 40 μg/ml TRAXO” value (T-47D breast cancer; 40 μg/ml) was 101% and the “% Survival with 40 μg/ml TRAXO” value (MDA-MB-231 Breast cancer) was 70% and 103% and 106%. The “% Survival with 40 μg/ml TRAXO” value (U-87-MG Astrocytoma) was 100%, the “activity against the cell line” value (SW620 Colon carcinoma) was “considerable activity” and the “sensitivity of the cell line” value [5] was “non-sensitive”. For the same compound, the “% Survival with 40 μg/ml TRAXO” value ([5]; 40 μg/ml) was 106%, the “activity against the cell line” value (G-292 Osteosarcoma) was “considerable activity” and the “% Survival with 40 μg/ml TRAXO” value ([6]; WI-38, 40 μg/ml) was 21%. For the same compound, the “activity against the cell line” value ([6]; WI-38 embryonic pulmonary fibroblast cell line) was “considerable activity”.

N.N.[Cl-].[Cl-].[OH-].[OH-].[Pt+4] [cis-Oxoplatin, cis-diammoniumdichlorodihydroxoplatinum(IV)] was tested, and the “IC50 values of these cells (mean ± spread)” value [7] was 10.5 ± 6.4 µg/mL, the IC50 (M607 Melanoma) was 5 µg/mL and the IC50 [8] was 5 µg/mL. For the same compound, the IC50 (HT29 Colon carcinoma; Table 1, HT29 Colon carcinoma) was 20 µg/mL, the IC50 (HT29 Colon carcinoma; Table 2, HT29 Colon) was 13.5 µg/mL and the IC50 (HT29 Colon carcinoma; Table 4, HT29 Colon, formazan test) was 13.5 µg/mL. For the same compound, the IC50 (M518 Melanoma) was “res (res=resistant=non-sensitive or IC50 value cannot be determined at a concentration of up to 40 μg/ml)”, the IC50 (T47D Breast cancer; Table 1, T47D Breast cancer) was 2.5 µg/mL and the IC50 (T47D Breast cancer; Table 2, T47D Breast cancer) was 3 µg/mL. It also gave an IC50 (T47D Breast cancer; Table 4, T47D Breast, formazan test) of 2.5 µg/mL, an IC50 (Panc1 Pancreatic cancer [9]) of 40 µg/mL and an IC50 (Du145 Prostate; Table 2) of 19.0 µg/mL. For the same compound, the IC50 (Du145 Prostate; Table 4, formazan test) was 19.0 µg/mL, the “IC50 (±SEM) mean value for all cell lines” value (10 cell lines (Table 4)) was 12.3 ± 3.2 µg/mL and the IC50 (MCF-7 Breast cancer) was 5.5 µg/mL. It also gave an IC50 (CC1227 Colon carcinoma) of 10 µg/mL, an IC50 (Me128 Melanoma) of 2.5 µg/mL and an IC50 (A498 Renal cells) of 20 µg/mL. The “% Survival” value (PC3 Prostate; Conc. 5 μg/ml) was 105.2 ± 10.8%, the “% Survival” value (PC3 Prostate; Conc. 10 μg/ml) was 87.4 ± 11.8% and the “% Survival” value (PC3 Prostate; Conc. 20 μg/ml) was 56.7 ± 6.3%. For the same compound, the “% Survival” value (PC3 Prostate; Conc. 40 μg/ml) was 15.8 ± 2.7%, the IC50 (PC3 Prostate; Table 1) was 7.5 µg/mL and the IC50 (PC3 Prostate; Table 2) was 7.5 µg/mL. For the same compound, the IC50 (U 373 MG Astrocytoma) was 15 µg/mL, the IC50 (SaOS Osteosarcoma) was 5 µg/mL and the IC50 (SK-OV4 Ovarian cancer) was 16.2 µg/mL. For the same compound, the IC50 (C320DM Colon carcinoma) was 2.5 µg/mL, the IC50 (Colo205 Colon carcinoma; Table 1, Colo205 Colon carcinoma) was “res (res=resistant=non-sensitive or IC50 value cannot be determined at a concentration of up to 40 μg/ml)” and the IC50 (Colo205 Colon carcinoma; Table 4, Colo205 Colon, formazan test) was 29.0 µg/mL. For the same compound, the IC50 (SK-OV3 Ovarian cancer) was 15 µg/mL, the IC50 (MDA-MB-435 Breast) was 16.5 µg/mL and the IC50 (HCT8 Colon carcinoma) was 40 µg/mL. It also gave an IC50 (HOS Osteosarcoma [10]) of 2.5 µg/mL, an IC50 (CRO2B Carcinoid; Table 2) of 3.0 µg/mL and an IC50 (CRO2B Carcinoid; Table 4, formazan test) of 3.0 µg/mL. The IC50 (CaCo-2 Colon; Table 2) was 1.52 µg/mL, the IC50 (CaCo-2 Colon; Table 4, formazan test) was 1.52 µg/mL and the IC50 (LAN5 (NB)) was 3.5 µg/mL. For the same compound, the IC50 (BT20 Breast) was 3.75 µg/mL, the IC50 (HCT-15 Colon carcinoma [11]) was 20 µg/mL and the IC50 (SW480 Colon; Table 2) was 8.2 µg/mL. It also gave an IC50 (SW480 Colon; Table 4, formazan test) of 8.2 µg/mL, an IC50 (BxPC3 Pancreatic cancer; Table 1, BxPC3 Pancreatic cancer) of 2.5 µg/mL and an IC50 (BxPC3 Pancreatic cancer; Table 2, BxPC3 Pancreatic carcinoma) of 13 µg/mL. The IC50 (BxPC3 Pancreatic cancer; Table 4, BxPC3 Pancreas, formazan test) was 26.0 µg/mL, the IC50 (SIM Sarcoma; Table 2, SIM Sarcoma) was 15.2 µg/mL and the IC50 (SIM Sarcoma; Table 3, SIM (EFT)) was 14 µg/mL. The IC50 (EW-7 (EFT)) was 1.25 µg/mL, the IC50 (LAN1 (NB)) was 17 µg/mL and the IC50 (JVSO Melanoma) was 10 µg/mL.
